The text below walks through data of patent US20100284966A1 (priority 2005, published 2010).

The test system of the data set is HCV replicon.

Regarding `Cn1cnc([N+](=O)[O-])c1Sc1ncnc2[nH]cnc12` [AZA], the “fewer cells (toxicity)” value is on record as ~10%.
